According to patent US20050037989A1, “Inhibition of gene function by delivery of polynucleotide-based gene expression inhibitors to mammalian cells in vivo” (priority 2001, published 2005):
d = 2'-deoxy (DNA); r = 2'-OH (RNA)

System: Luc+ expression
Assay: Dual luciferase in liver after bile duct delivery of plasmids and siRNA
Assay type: in vivo, mice
Settings: 5.0 μg siRNA, bile duct injection, one day, compared to control siRNA-ori
Method: Inhibition of Luciferase expression by siRNA is gene specific and siRNA specific in liver after bile duct delivery in vivo. 10 μg pGL3 control and 1 μg pRL-SV40 with 5.0 μg siRNA-luc+ or 5.0 siRNA-ori were injected into the bile duct of mice. A total volume of 1 ml in Ringer's buffer was delivered at 6 ml/min. […] One day after injection, the liver was harvested and homogenized as described in Example 1. Luc+ and Renilla Luc activities were assayed using the Dual Luciferase Reporter Assay System (Promega). Ratios of Luc+ to Renilla Luc were normalized to the siRNA-ori control. siRNA-Luc+ inhibited Luc+ expression in liver by 88% compared to the control siRNA-ori.

siRNA-luc+: annealed oligomers SEQ ID 4 and SEQ ID 5 containing luc+ coding sequence, positions 155-173 of the luc+ reading frame (chain 1 CUUACGCUGAGUACUUCGATT; chain 2 UCGAAGUACUCAGCGUAAGTT; sugars from the 5' end r19 d2, backbone not given here; listed as Photinus pyralis)
inhibition of Luc+ expression in liver: 88%
